EC50 data for 26 compounds are collected here from patent US20230075856A1, “CYCLIC SULFAMIDE COMPOUNDS FOR TREATMENT OF HBV” (Assembly Biosciences, Inc., priority 2018, published 2023).

The test system of one assay is HBV viral load production from HepAD38 cells. In words: Viral production from HepAD38 cells: viral load in supernatant by qPCR of the HBV core sequence. Format: cell-based. The following applies: 5 days incubation, qPCR of supernatant HBV DNA vs DMSO control, read-out: viral load lowering EC50 (Activity). How it is done: Assay Measuring Activity of Test Compounds on Viral Production from HepAD38 Cells
HepAD38 cells grown in a T-150 flask (Corning, cat #: 430825) with Growth Medium (DMEM/F12 […] (Hyclone, cat #: SH30023.02), 1× Pen/Strep (Invitrogen, cat #: 15140-122), 10% FBS (Tissue Culture Biologics, cat #: 101), […] G418 (Alfa Aesar, cat #: J62671), 1 μg/mL Tetracycline (Teknova, cat #: T3320)) were detached with 0.25% trypsin-EDTA (Invitrogen, cat #: 25200-056). Tetracycline-free treatment medium (15 mL DMEM/F12 (1:1) 1× Pen/step, with 2% FBS, Tet-system approved (Clontech, cat #: 631106) were then added to mix, transferred into a 50 ml conical tube (Falcon, cat #: 21008-918,) and spun at 1300 rpm for 5 min. Pelleted cells were then re-suspended/washed with 50 mL of 1×DPBS (Invitrogen, cat #: 14190-136) 2 times and 50 mL treatment medium twice. HepAD38 cells were then re-suspended with 10 mL of treatment medium, syringed and counted. Wells of 96-well clear bottom TC plate (Corning, cat #: 3904,) were seeded at 50,000 cells/well in 180 μL of treatment medium, and 20 μL of either 10% DMSO (Sigma, cat #: D4540) as controls or a 10× solution of test compounds in 10% DMSO in treatment media was added for a final compound concentration starting at 10 μM, and plates were incubated in 5% CO2 incubator at 37° C. for 5 days.
Subsequently viral load production was assayed by quantitative PCR (qPCR) of the HBV core sequence. PCR reaction mixture containing forward primers HBV-f 5′-CTGTGCCTTGGGTGGCTIT-3′ (IDT DNA), Reverse primers HBV-r 5′-[…]-3′ (IDT DNA), Fluorescent TaqMan™ Probes HBV-probe 5′-FAM/AGCTCCAAA/ZEN/[…]/3IABkFQ-3′ (IDT DNA), 10 μL/well of PerfeCTa® qPCR ToughMix® (Quanta Biosciences, Cat #: 95114-05K), and 6 μL/well of DEPC water (Alfa Aesar, cat #: J62087) was prepared. Four μL of supernatant was added to 16 μL of the reaction mixture in a qPCR plate (Applied Biosytems, Cat #: 4309849), sealed with a film (Applied Biosystems, Cat #: 4311971), centrifuged for a few seconds, and subsequently run on an Applied Biosystems VIIA7. The PCR mixture was incubated at 45° C. for 5 min, then 95° C. for 10 min, followed by 40 cycles of 10 seconds at 95° C. and 20 seconds at 60° C. Viral load was quantified against known HBV DNA standards by using ViiA™ 7 Software. Viral load in the supernatant from wells with treated cells were compared against viral load in supernatant from DMSO control wells (≥3 per plate). Cell viability assay was performed with CellTiter-Glo Luminescent Cell Viability Assay (Promega, cat #: G7573) with modification. Mixed appropriate amount of CellTiter-Glo (CTG) 1×DPBS in a 1:1 ratio, added 100 uL of the mixture to each well followed completely removal of all supernatant in each well without touching cell surface. Incubated the plate at room temperature for 10 min on an orbital shaker, and then read the plate with a plate reader (TECAN M1000 or Envision). EC50 or CC50 values were calculated through curve-fitting of the four-parameter nonlinear-logistic-regression model (GraphPad Prism or Dotmatics). CC50 values were all >10 μM.
A general note: Quantitative PCR measures a nucleic acid by following its amplification.
Turning to `CN1C(C(=O)Nc2ccc(F)c(Cl)c2)CC(C(=O)NC2CCN(C(=O)OC(C)(C)C)CC2)NS1(=O)=O` (single isomer, unassigned) [Compound 767-ISOMER-B, tert-butyl 4-[[5-[(3-chloro-4-fluoro-phenyl)carbamoyl]-6-methyl-1,1-dioxo-1,2,6-thiadiazinane-3-carbonyl]amino]piperidine-1-carboxylate], the concentration giving a half-maximal response (EC50) (in general, the concentration giving half of the maximal effect) was 100 to 10000 nM.

For `Cc1nc(-c2ccccc2F)sc1[C@@H](NC(=O)C1CC(C(=O)Nc2ccc(F)c(Cl)c2)N(C)S(=O)(=O)N1)c1ccccc1` (single isomer, unassigned; isomer-d) [1101-ISOMER-D], the concentration for a half-maximal effect (EC50) is 100 to 10000 nM.

As for `CN1C(C(=O)Nc2ccc(F)c(Cl)c2)CC(C(=O)NC(c2ccccc2)c2ccccc2)NS1(=O)=O` (single isomer, unassigned) [1014-ISOMER-B, N5-benzhydryl-N3-(3-Chloro-4-fluoro-phenyl)-2-methyl-1,1-dioxo-1,2,6-thiadiazinane-3,5-dicarboxamide], the EC50 was 100 to 10000 nM.

Consider `Cc1nc(-c2ccccc2)sc1CNC(=O)C1CC(C(=O)Nc2ccc(F)c(Cl)c2)N(C)S(=O)(=O)N1` (single isomer, unassigned) [Compound 914-ISOMER-B, N3-(3-chloro-4-fluoro-phenyl)-2-methyl-N5-[(4-methyl-2-phenyl-thiazol-5-yl)methyl]-1,1-dioxo-1,2,6-thiadiazinane-3,5-dicarboxamide], for which the concentration giving a half-maximal response (EC50) fell in the range of 50 to 100 nM.

Regarding `Cc1cn(-c2ccccc2F)nc1CNC(=O)C1CC(C(=O)Nc2ccc(F)c(Cl)c2)N(C)S(=O)(=O)N1` (single isomer, unassigned) [1142-ISOMER-B, N3-(3-chloro-4-fluoro-phenyl)-N5-[[1-(2-fluorophenyl)-4-methyl-pyrazol-3-yl]methyl]-2-methyl-1,1-dioxo-1,2,6-thiadiazinane-3,5-dicarboxamide], the EC50 was 100 to 10000 nM.

The same assay, now with this note: Hepatitis B virus, HePAD38, 120 h, 5 days incubation, qPCR of supernatant HBV DNA vs DMSO control, read-out: viral load lowering EC50 (Activity).
Regarding `Cc1ccccc1-c1nc(C)c(CNC(=O)C2CC(C(=O)Nc3ccc(F)c(Cl)c3)N(C)S(=O)(=O)N2)s1` (single isomer, unassigned) [1017-ISOMER-A, N3-(3-chloro-4-fluoro-phenyl)-2-methyl-N5-[[4-methyl-2-(o-tolyl)thiazol-5-yl]methyl]-1,1-dioxo-1,2,6-thiadiazinane-3,5-dicarboxamide], the concentration giving a half-maximal response (EC50) is less than 50 nM.

`Cc1nc(-c2ccc(F)cc2F)sc1CNC(=O)C1CC(C(=O)Nc2ccc(F)c(Cl)c2)N(C)S(=O)(=O)N1` (centres unmarked) [Compound 1083]: the half-maximal effective concentration (EC50) was less than 50 nM.

Turning to `Cc1nc(-c2ccccc2F)sc1CNC(=O)C1CC(C(=O)Nc2ccc(F)c(Cl)c2)N(C)S(=O)(=O)N1` (centres unmarked) [Compound 1016], the EC50 is less than 50 nM.

Consider `Cc1cn(-c2ccccc2F)nc1CNC(=O)C1CC(C(=O)Nc2ccc(F)c(Cl)c2)N(C)S(=O)(=O)N1` (centres unmarked) [Compound 1142], for which the 50% effective concentration (EC50) was less than 50 nM.

Turning to `CN1C(C(=O)Nc2ccc(F)c(Cl)c2)CC(C(=O)NC2CCN(c3ccccn3)CC2)NS1(=O)=O` (single isomer, unassigned) [Compound 769-ISOMER-A, N3-(3-chloro-4-fluoro-phenyl)-2-methyl-1,1-dioxo-N5-[1-(2-pyridyl)-4-piperidyl]-1,2,6-thiadiazinane-3,5-dicarboxamide], the half-maximal effective concentration (EC50) was less than 50 nM.

Regarding `Cc1nc(-c2ccccc2)sc1CNC(=O)C1CC(C(=O)Nc2ccc(F)c(Cl)c2)N(C)S(=O)(=O)N1` (centres unmarked) [Compound 914], the 50% effective concentration (EC50) is less than 50 nM.

For `Cc1cn(-c2ccc(F)cc2)nc1CNC(=O)C1CC(C(=O)Nc2ccc(F)c(Cl)c2)N(C)S(=O)(=O)N1` (centres unmarked) [Compound 1141], the concentration giving a half-maximal response (EC50) is less than 50 nM.

In the case of `Cc1nc(-c2ccccc2Cl)sc1[C@H](NC(=O)C1CC(C(=O)Nc2ccc(F)c(Cl)c2)N(C)S(=O)(=O)N1)c1ccccc1` (single isomer, unassigned) [1100-ISOMER-C], the concentration giving a half-maximal response (EC50) was in the range of 100 to 10000 nM.

On to `CN1C(C(=O)Nc2ccc(F)c(Cl)c2)CC(C(=O)NC2CCN(Cc3cccnc3Br)CC2)NS1(=O)=O` (centres unmarked) [Compound 1033], for which the EC50 lay in the range of 100 to 10000 nM.

`CN(C)CC(C)(C)COc1ccc(-c2ncc(CNC(=O)C3CC(C(=O)Nc4ccc(F)c(Cl)c4)N(C)S(=O)(=O)N3)s2)cc1` (single isomer, unassigned) [Compound 943-ISOMER-A, N3-(3-chloro-4-fluoro-phenyl)-N5-[[2-[4-[3-(dimethylamino)-2,2-dimethyl-propoxy]phenyl]thiazol-5-yl]methyl]-2-methyl-1,1-dioxo-1,2,6-thiadiazinane-3,5-dicarboxamide]: the concentration for a half-maximal effect (EC50) was less than 50 nM.

Take `CN1C(C(=O)Nc2ccc(F)c(Cl)c2)CC(C(=O)NCc2ccccc2F)NS1(=O)=O` (centres unmarked) [Compound 819]: the EC50 is less than 50 nM.

On to `COc1ccc(CNC(=O)C2CC(C(=O)Nc3ccc(F)c(Cl)c3)N(C)S(=O)(=O)N2)cc1` (centres unmarked) [Compound 717, N3-(3-chloro-4-fluoro-phenyl)-N5-[(4-methoxyphenyl)methyl]-2-methyl-1,1-dioxo-1,2,6-thiadiazinane-3,5-dicarboxamide], for which the EC50 was less than 50 nM.

Regarding `COC(=O)N1CCC(NC(=O)C2CC(C(=O)Nc3ccc(F)c(Cl)c3)N(C)S(=O)(=O)N2)CC1` (single isomer, unassigned) [Compound 477-ISOMER-A, methyl 4-[[5-[(3-chloro-4-fluoro-phenyl)carbamoyl]-6-methyl-1,1-dioxo-1,2,6-thiadiazinane-3-carbonyl]amino]piperidine-1-carboxylate], the 50% effective concentration (EC50) was less than 50 nM.

With `CN1C(C(=O)Nc2ccc(F)c(Cl)c2)CC(C(=O)NCc2cnc(-c3cscn3)s2)NS1(=O)=O` (centres unmarked) [Compound 929], the concentration for a half-maximal effect (EC50) was less than 50 nM.

As to `CN1C(C(=O)Nc2ccc(F)c(Cl)c2)CC(C(=O)NCc2cnc(-c3ccccc3)s2)NS1(=O)=O` (centres unmarked) [Compound 691], the EC50 was less than 50 nM.

As for `Cc1cn(-c2ccc(F)cc2)nc1CNC(=O)C1CC(C(=O)Nc2ccc(F)c(Cl)c2)N(C)S(=O)(=O)N1` (single isomer, unassigned) [1141-ISOMER-A, N3-(3-chloro-4-fluoro-phenyl)-N5-[[1-(4-fluorophenyl)-4-methyl-pyrazol-3-yl]methyl]-2-methyl-1,1-dioxo-1,2,6-thiadiazinane-3,5-dicarboxamide], the EC50 was less than 50 nM.

As for `Cc1ncc(CNC(=O)C2CC(C(=O)Nc3ccc(F)c(Cl)c3)N(CC(F)(F)F)S(=O)(=O)N2)s1` (single isomer, unassigned) [Compound 891-ISOMER-A, N3-(3-chloro-4-fluoro-phenyl)-N5-[(2-methylthiazol-5-yl)methyl]-1,1-dioxo-2-(2,2,2-trifluoroethyl)-1,2,6-thiadiazinane-3,5-dicarboxamide], the concentration giving a half-maximal response (EC50) was 100 to 10000 nM.

On to `CCN1C(C(=O)Nc2ccc(F)c(Cl)c2)CC(C(=O)NCc2cnc(C)s2)NS1(=O)=O` (single isomer, unassigned) [Compound 888-ISOMER-A, N3-(3-chloro-4-fluoro-phenyl)-2-ethyl-N5-[(2-methylthiazol-5-yl)methyl]-1,1-dioxo-1,2,6-thiadiazinane-3,5-dicarboxamide], for which the concentration for a half-maximal effect (EC50) lay in the range of 100 to 10000 nM.

As for `CN1C(C(=O)Nc2ccc(F)c(Cl)c2)CC(C(=O)NC2CCN(C(=O)OCc3ccccc3)CC2)NS1(=O)=O` (centres unmarked) [Compound 852], the 50% effective concentration (EC50) fell in the range of 100 to 10000 nM.

For the compound `Cc1c(CNC(=O)C2CC(C(=O)Nc3ccc(F)c(Cl)c3)N(C)S(=O)(=O)N2)noc1-c1ccccc1` (centres unmarked) [Compound 1150], the EC50 was less than 50 nM.

On to `Cc1nc(-c2ccccc2Cl)sc1[C@@H](NC(=O)C1CC(C(=O)Nc2ccc(F)c(Cl)c2)N(C)S(=O)(=O)N1)c1ccccc1` (single isomer, unassigned) [1100-ISOMER-B], for which the EC50 is 100 to 10000 nM.
